Assay results published in patent publication US20260274856A1, “COVALENT CEREBLON LIGANDS” (C4 THERAPEUTICS, INC., priority 2023, published 2026).
Like-named read-outs stand apart in the source and are kept apart here.

Target: cellular cereblon (CRBN) (Homo sapiens, UniProt Q96SW2)
Assay: NanoBRET Target Engagement Assay, competition with pomalidomide tracer in 293T.116 cells
Details: for NanoBRET TE 293T.116 CRBN 6 hours IP nM / NanoBRET TE 293T.116 CRBN 24 hours IP nM / IC50 / NanoBRET TE 293T.116 CRBN 2 hours IP nM: 293T.116 cells
[1] = NanoBRET TE 293T.116 CRBN 6 hours IC50 nM, 6 hours incubation
[2] = NanoBRET TE 293T.116 CRBN 24 hours IC50 nM, 24 hours incubation
[3] = read-out: NanoBRET TE 293T.116 CRBN 6 hours Emax
[4] = read-out: NanoBRET TE 293T.116 CRBN 24 hours Emax
[5] = NanoBRET TE 293T.116 CRBN 2 hours IC50 nM, 2 hours incubation
[6] = read-out: NanoBRET TE 293T.116 CRBN 2 hours Emax

Compound | NanoBRET TE 293T.116 CRBN 6 hours IP nM (6 hours incubation) | NanoBRET TE 293T.116 CRBN 24 hours IP nM (24 hours incubation) | IC50 [1] [nM] | IC50 [2] [nM] | Emax [3] [%] | Emax [4] [%] | NanoBRET TE 293T.116 CRBN 2 hours IP nM (2 hours incubation) | IC50 [5] [nM] | Emax [6] [%]
COc1cc(OC2CCC(=O)NC2=O)cc(OS(=O)(=O)F)c1 (stereo not drawn) [Compound A-21, 3-(3-fluorosulfonyloxy-5-methoxy-phenoxy)-2,6-dioxo-piperidine] | *** (<= 1 μM is ***) | ** (<10 μM and >1 μM is **) | < 1000 | 1000 to 10000 | < 50 | < 50 |  |  | 
O=C1CCC(c2cccc(OS(=O)(=O)F)c2)C(=O)N1 (stereo not drawn) [Compound A-23, 3-(2,6-dioxopiperidin-3-yl)phenyl sulfurofluoridate] | ** (<10 μM and >1 μM is **) | ** (<10 μM and >1 μM is **) | 1000 to 10000 | 1000 to 10000 | < 50 | < 50 |  |  | 
O=C1CCC(c2ccc(OS(=O)(=O)F)cc2)C(=O)N1 (stereo not drawn) [Compound A-25, 4-(2,6-dioxopiperidin-3-yl)phenyl sulfurofluoridate] | *** (<= 1 μM is ***) | *** (<= 1 μM is ***) | < 1000 | < 1000 | < 50 | < 50 |  |  | 
COc1ccc(OC2CCC(=O)NC2=O)cc1OS(=O)(=O)F (stereo not drawn) [Compound A-27, 5-((2,6-dioxopiperidin-3-yl)oxy)-2-methoxyphenyl sulfurofluoridate] | ** (<10 μM and >1 μM is **) | ** (<10 μM and >1 μM is **) | 1000 to 10000 | > 10000 | < 50 | 50 to 80 | ** (<10 μM and >1 μM is **) | 1000 to 10000 | < 50
O=C1CCC(n2c(=O)oc3c(S(=O)(=O)F)cccc32)C(=O)N1 (stereo not drawn) [Compound A-29, 3-(2,6-dioxopiperidin-3-yl)-2-oxo-2,3-dihydrobenzo[d]oxazole-7-sulfonyl fluoride] | *** (<= 1 μM is ***) | ** (<10 μM and >1 μM is **) | < 1000 | 1000 to 10000 | < 50 | < 50 |  |  | 
Cn1nc(N2CCC(=O)NC2=O)c2cccc(OS(=O)(=O)F)c21 [Compound A-30, 3-(2,4-dioxotetrahydropyrimidin-1(2H)-yl)-1-methyl-1H-indazol-7-yl sulfurofluoridate] | *** (<= 1 μM is ***) | ** (<10 μM and >1 μM is **) | < 1000 | 1000 to 10000 | < 50 | < 50 | ** (<10 μM and >1 μM is **) | 1000 to 10000 | < 50
O=C1CCC(Nc2ccc(C3CCNCC3)c(OS(=O)(=O)F)c2)C(=O)N1 (stereo not drawn) [Compound A-31, 5-((2,6-dioxopiperidin-3-yl)amino)-2-(piperidin-4-yl)phenyl sulfurofluoridate] | *** (<= 1 μM is ***) | *** (<= 1 μM is ***) | < 1000 | < 1000 | < 50 | < 50 | *** (<= 1 μM is ***) | < 1000 | < 50
O=C1NC(=O)C2(Nc3ccc(S(=O)(=O)F)cc3)CC1C2 [Compound A-33, 4-((2,4-dioxo-3-azabicyclo[3.1.1]heptan-1-yl)amino)benzenesulfonyl fluoride] | ** (<10 μM and >1 μM is **) | ** (<10 μM and >1 μM is **) | 1000 to 10000 | 1000 to 10000 | < 50 | < 50 | ** (<10 μM and >1 μM is **) | 1000 to 10000 | < 50
O=C1NC(=O)C2(c3ccc(S(=O)(=O)F)cc3)CC1C2 [Compound A-34, 4-(2,4-dioxo-3-azabicyclo[3.1.1]heptan-1-yl)benzenesulfonyl fluoride] | ** (<10 μM and >1 μM is **) | * (>=10 μM is *) | 1000 to 10000 | > 10000 | < 50 | > 80 | ** (<10 μM and >1 μM is **) | 1000 to 10000 | < 50
O=C1CCC(c2ccc(N3CCNCC3)c(OS(=O)(=O)F)c2)C(=O)N1 (stereo not drawn) [Compound A-36, 5-(2,6-dioxopiperidin-3-yl)-2-(piperazin-1-yl)phenyl sulfurofluoridate] | *** (<= 1 μM is ***) | *** (<= 1 μM is ***) | < 1000 | < 1000 | < 50 | < 50 | *** (<= 1 μM is ***) | < 1000 | < 50
